What was measured:
Human KLKB1 protein = molecular target: T1, Human KLKB1 protein (Homo sapiens, UniProt P03952); assay: KLKB1 kallikrein protease inhibition assay (chromogenic substrate S-2302); type: biochemical; conditions: 3 nM KLKB1, 250 μM S-2302, 10 min pre-incubation, RT, read at 405 nm
T1 construct: purchased Enzyme Research Labs
Experimental: The KLKB1 kallikrein activity reported herein (e.g., Table A) was obtained as follows. Human KLKB1 protein was obtained from Enzyme Research Labs. The chromogenic substrate S-2302 was obtained from DiaPharma. KLKB1 was assayed in buffer containing 0.05 M Tris (pH 7.4), 0.01 M NaCl and 0.2% w/v PEG-8000. The final concentration of enzyme used was 3 nM KLKB1. The final concentration of substrate used was 250 μM S-2302 for KLKB1. All assays were performed in 96-well microtiter plates at room temperature (RT). […] The plate was read at 10 minutes after substrate addition. The IC50 was calculated by plotting the percent (%) inhibition against compound concentration and fitting the data to a constrained four parameter sigmoidal curve, as known in the art.

Human thrombin = molecular target: T2, Human thrombin (Homo sapiens, UniProt P00734); assay: thrombin protease inhibition assay (chromogenic substrate S-2238); type: biochemical; conditions: 3 nM thrombin, 125 μM S-2238, 10 min pre-incubation, RT, read at 405 nm
T2 construct: Thrombin (fIIa, the active form of prothrombin) is another serine protease; purchased Haematologic Technologies Inc
Experimental: The thrombin activity reported herein (e.g., Table A) was obtained as follows. […] Thrombin was assayed in buffer containing 0.05 M Tris (pH 7.4), 0.015 M NaCl and 0.01% PEG-8000. The final concentration of enzyme used was 3 nM thrombin. […] All assays were performed in 96-well microtiter plates at room temperature (RT). […] Inhibitor IC50 values were determined by adding test compound as ten point, three-fold serial dilutions in buffer solution, as known in the art. The plate was read at 10 minutes after substrate addition. The IC50 was calculated by plotting the percent (%) inhibition against compound concentration and fitting the data to a constrained four parameter sigmoidal curve, as known in the art.

T1 sequence (P03952 391-638 limits assumed): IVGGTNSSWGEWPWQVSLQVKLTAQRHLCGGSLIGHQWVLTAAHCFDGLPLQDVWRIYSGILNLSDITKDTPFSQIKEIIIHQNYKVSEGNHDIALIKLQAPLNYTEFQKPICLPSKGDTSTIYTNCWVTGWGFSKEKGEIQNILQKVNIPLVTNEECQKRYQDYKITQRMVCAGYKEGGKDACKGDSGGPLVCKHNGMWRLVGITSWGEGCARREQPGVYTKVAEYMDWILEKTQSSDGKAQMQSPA
T1 sequence (P03952 20-390 partner limits assumed): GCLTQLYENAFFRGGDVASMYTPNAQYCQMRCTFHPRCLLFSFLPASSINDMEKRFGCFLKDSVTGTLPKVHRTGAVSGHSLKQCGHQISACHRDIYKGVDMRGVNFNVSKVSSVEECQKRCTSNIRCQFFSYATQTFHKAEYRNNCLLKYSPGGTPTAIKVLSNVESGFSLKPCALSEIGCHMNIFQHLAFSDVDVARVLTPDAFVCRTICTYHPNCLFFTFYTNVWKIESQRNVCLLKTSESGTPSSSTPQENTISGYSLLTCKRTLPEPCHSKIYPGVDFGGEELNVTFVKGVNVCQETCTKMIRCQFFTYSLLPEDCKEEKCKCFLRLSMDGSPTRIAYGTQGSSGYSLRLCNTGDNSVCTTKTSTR

SMILES | IC50 (Human KLKB1 protein) | IC50 (Human thrombin)
O=C(c1ccsc1)n1nc(-c2cc(Br)c[nH]c2=O)cc1NCc1ccc(Cl)s1 [Entry 41, 5-bromo-3-(5-[(5-chlorothiophen-2-yl)methyl]amino-1-(thiophene-3-carbonyl)-1H-pyrazol-3-yl)-1,2-dihydropyridin-2-one] | 100 to 1000 nM | < 100 nM
CC(C)(C)C(=O)n1nc(-c2ccc(=O)n(CC(=O)N3CCOCC3)c2)cc1NCc1ccc(Cl)s1 [Entry 32, 5-(5-[(5-chlorothiophen-2-yl)methyl]amino-1-(2,2-dimethylpropanoyl)-1H-pyrazol-3-yl)-1-[2-(morpholin-4-yl)-2-oxoethyl]-1,2-dihydropyridin-2-one] | > 100000 nM | 
CC(C)(C)C(=O)n1nc(-c2ccn(CC(=O)N3CCOCC3)c(=O)c2)cc1NCc1ccc(Cl)s1 [Entry 12, 4-(5-[(5-chlorothiophen-2-yl)methyl]amino-1-(2,2-dimethylpropanoyl)-1H-pyrazol-3-yl)-1-[2-(morpholin-4-yl)-2-oxoethyl]-1,2-dihydropyridin-2-one] | 10000 to 100000 nM | 
O=C(c1ccsc1)n1nc(-c2cc(-c3ccccc3)[nH]c(=O)c2)cc1NCc1ccc(Cl)s1 [Entry 28, 4-(5-[(5-chlorothiophen-2-yl)methyl]amino-1-(thiophene-3-carbonyl)-1H-pyrazol-3-yl)-6-phenyl-1,2-dihydropyridin-2-one] | > 100000 nM | > 100000 nM
CC(C)(C)C(=O)n1nc(-c2ccc(=O)[nH]c2)cc1NCc1ccc(Cl)s1 [Entry 31, 5-(5-[(5-chlorothiophen-2-yl)methyl]amino-1-(2,2-dimethylpropanoyl)-1H-pyrazol-3-yl)-1,2-dihydropyridin-2-one] | 10000 to 100000 nM | 
CC(C)(C)C(=O)n1nc(-c2cccc(=O)[nH]2)cc1NCc1ccc(Cl)s1 [Entry 43, 6-(5-[(5-chlorothiophen-2-yl)methyl]amino-1-(2,2-dimethylpropanoyl)-1H-pyrazol-3-yl)-1,2-dihydropyridin-2-one] | 1000 to 10000 nM | 
COCCn1ccc(-c2cc(NCc3ccc(Cl)s3)n(C(=O)c3ccsc3)n2)cc1=O [Entry 23, 4-(5-[(5-chlorothiophen-2-yl)methyl]amino-1-(thiophene-3-carbonyl)-1H-pyrazol-3-yl)-1-(2-methoxyethyl)-1,2-dihydropyridin-2-one] | 100 to 1000 nM | < 100 nM
O=C(Cn1ccc(-c2cc(NCc3ccc(Cl)s3)n(C(=O)c3ccoc3)n2)cc1=O)N1CCOCC1 [Entry 20, 4-(5-[(5-chlorothiophen-2-yl)methyl]amino-1-(furan-3-carbonyl)-1H-pyrazol-3-yl)-1-[2-(morpholin-4-yl)-2-oxoethyl]-1,2-dihydropyridin-2-one] | 1000 to 10000 nM | 100 to 1000 nM
O=C(c1ccsc1)n1nc(-c2ccc(=O)[nH]c2)cc1NCc1ccc(Cl)s1 [Entry 37, 5-(5-[(5-chlorothiophen-2-yl)methyl]amino-1-(thiophene-3-carbonyl)-1H-pyrazol-3-yl)-1,2-dihydropyridin-2-one] | 1000 to 10000 nM | 100 to 1000 nM
COCCn1ccc(-c2cc(NCc3ccc(Cl)s3)n(C(=O)C(C)(C)C)n2)cc1=O [Entry 9, 4-(5-[(5-chlorothiophen-2-yl)methyl]amino-1-(2,2-dimethylpropanoyl)-1H-pyrazol-3-yl)-1-(2-methoxyethyl)-1,2-dihydropyridin-2-one] | 1000 to 10000 nM | < 100 nM
Cc1c[nH]c(=O)c(-c2cc(NCc3ccc(Cl)s3)n(C(=O)c3ccoc3)n2)c1 [Entry 4, 3-(5-[(5-chlorothiophen-2-yl)methyl]amino-1-(furan-3-carbonyl)-1H-pyrazol-3-yl)-5-methyl-1,2-dihydropyridin-2-one] | 100 to 1000 nM | < 100 nM
CC(C)(C)C(=O)n1nc(-c2cc(Br)[nH]c(=O)c2)cc1NCc1ccc(Cl)s1 [Entry 48, 6-bromo-4-(5-[(5-chlorothiophen-2-yl)methyl]amino-1-(2,2-dimethylpropanoyl)-1H-pyrazol-3-yl)-1,2-dihydropyridin-2-one] | 10000 to 100000 nM | < 100 nM
O=C(c1ccsc1)n1nc(-c2ccn(Cc3cccnc3)c(=O)c2)cc1NCc1ccc(Cl)s1 [Entry 25, 4-(5-[(5-chlorothiophen-2-yl)methyl]amino-1-(thiophene-3-carbonyl)-1H-pyrazol-3-yl)-1-(pyridin-3-ylmethyl)-1,2-dihydropyridin-2-one] | < 100 nM | < 100 nM
O=c1cccc(-c2cc(NCc3ccc(Cl)s3)[nH]n2)[nH]1 [Entry 47, 6-(5-[(5-chlorothiophen-2-yl)methyl]amino-1H-pyrazol-3-yl)-1,2-dihydropyridin-2-one] | > 100000 nM | > 100000 nM
O=C(c1ccoc1)n1nc(-c2ccn(Cc3cccnc3)c(=O)c2)cc1NCc1ccc(Cl)s1 [Entry 19, 4-(5-[(5-chlorothiophen-2-yl)methyl]amino-1-(furan-3-carbonyl)-1H-pyrazol-3-yl)-1-(pyridin-3-ylmethyl)-1,2-dihydropyridin-2-one] | < 100 nM | < 100 nM
CC(C)(C)C(=O)n1nc(-c2cc(N3CCOCC3)c[nH]c2=O)cc1NCc1ccc(Cl)s1 [Entry 1, 3-(5-[(5-chlorothiophen-2-yl)methyl]amino-1-(2,2-dimethylpropanoyl)-1H-pyrazol-3-yl)-5-(morpholin-4-yl)-1,2-dihydropyridin-2-one] | 1000 to 10000 nM | < 100 nM
O=C(c1ccsc1)n1nc(-c2ccn(CCN3CCOCC3)c(=O)c2)cc1NCc1ccc(Cl)s1 [Entry 27, 4-(5-[(5-chlorothiophen-2-yl)methyl]amino-1-(thiophene-3-carbonyl)-1H-pyrazol-3-yl)-1-[2-(morpholin-4-yl)ethyl]-1,2-dihydropyridin-2-one] | 100 to 1000 nM | < 100 nM
C=Cc1ccc(-c2cc(NCc3ccc(Cl)s3)n(C(=O)C(C)(C)C)n2)[nH]c1=O [Entry 46, 6-(5-[(5-chlorothiophen-2-yl)methyl]amino-1-(2,2-dimethylpropanoyl)-1H-pyrazol-3-yl)-3-ethenyl-1,2-dihydropyridin-2-one] | 10000 to 100000 nM | < 100 nM
CC(C)(C)C(=O)n1nc(-c2cccc(=O)n2CC(=O)N2CCOCC2)cc1NCc1ccc(Cl)s1 [Entry 45, 6-(5-[(5-chlorothiophen-2-yl)methyl]amino-1-(2,2-dimethylpropanoyl)-1H-pyrazol-3-yl)-1-[2-(morpholin-4-yl)-2-oxoethyl]-1,2-dihydropyridin-2-one] | > 100000 nM | 
COCCn1ccc(-c2cc(NCc3ccc(Cl)s3)n(C(=O)c3ccoc3)n2)cc1=O [Entry 17, 4-(5-[(5-chlorothiophen-2-yl)methyl]amino-1-(furan-3-carbonyl)-1H-pyrazol-3-yl)-1-(2-methoxyethyl)-1,2-dihydropyridin-2-one] | 1000 to 10000 nM | < 100 nM
O=c1[nH]cc(Br)cc1-c1cc(NCc2ccc(Cl)s2)[nH]n1 [Entry 42, 5-bromo-3-(5-[(5-chlorothiophen-2-yl)methyl]amino-1H-pyrazol-3-yl)-1,2-dihydropyridin-2-one] | 10000 to 100000 nM | > 100000 nM
O=C(Cn1ccc(-c2cc(NCc3ccc(Cl)s3)n(C(=O)c3ccsc3)n2)cc1=O)N1CCOCC1 [Entry 26, 4-(5-[(5-chlorothiophen-2-yl)methyl]amino-1-(thiophene-3-carbonyl)-1H-pyrazol-3-yl)-1-[2-(morpholin-4-yl)-2-oxoethyl]-1,2-dihydropyridin-2-one] | 1000 to 10000 nM | 100 to 1000 nM
O=c1cc(-c2cc(NCc3ccc(Cl)s3)[nH]n2)cc[nH]1 [Entry 29, 4-(5-[(5-chlorothiophen-2-yl)methyl]amino-1H-pyrazol-3-yl)-1,2-dihydropyridin-2-one] | > 100000 nM | > 100000 nM
O=C(c1ccoc1)n1nc(-c2ccn(Cc3ccccn3)c(=O)c2)cc1NCc1ccc(Cl)s1 [Entry 18, 4-(5-[(5-chlorothiophen-2-yl)methyl]amino-1-(furan-3-carbonyl)-1H-pyrazol-3-yl)-1-(pyridin-2-ylmethyl)-1,2-dihydropyridin-2-one] | 100 to 1000 nM | < 100 nM
CC(C)(C)C(=O)n1nc(-c2cc(N3CCOCC3)[nH]c(=O)c2)cc1NCc1ccc(Cl)s1 [Entry 13, 4-(5-[(5-chlorothiophen-2-yl)methyl]amino-1-(2,2-dimethylpropanoyl)-1H-pyrazol-3-yl)-6-(morpholin-4-yl)-1,2-dihydropyridin-2-one] | > 100000 nM | 1000 to 10000 nM
O=C(c1ccoc1)n1nc(-c2cc[nH]c(=O)c2)cc1NCc1ccc(Cl)s1 [Entry 16, 4-(5-[(5-chlorothiophen-2-yl)methyl]amino-1-(furan-3-carbonyl)-1H-pyrazol-3-yl)-1,2-dihydropyridin-2-one] | 1000 to 10000 nM | < 100 nM
CC(C)(C)C(=O)n1nc(-c2cccc(=O)n2Cc2ccccn2)cc1NCc1ccc(Cl)s1 [Entry 44, 6-(5-[(5-chlorothiophen-2-yl)methyl]amino-1-(2,2-dimethylpropanoyl)-1H-pyrazol-3-yl)-1-(pyridin-2-ylmethyl)-1,2-dihydropyridin-2-one] | > 100000 nM | 

From patent publication US10189810B2, “Pyrazolyl-substituted pyridone compounds as serine protease inhibitors” (VERSEON CORPORATION, priority 2014, dated 2019)
